# What was measured:
# [1] = test system: ECV 304 endothelial cells; test: Examination of endothelial capillary formation; assay type: cell-based; conditions: for selectivity index: inhibits the capillary formation better than the cell proliferation, in relation to the borrelidin: ECV 304, from ratios of concentrations inhibiting cell proliferation in 50% and capillary formation, relative to borrelidin
# Description: Basal membrane protein gel prepared from murine EHS tumor, which induces capillary formation, was put onto ECV 304 endothelial cells. The treatment with the borrelidin and the novel borrelidin derivatives of general formula (I) according to the invention was carried out in the same way as in case of the examination of cell proliferation. The extent by which the cells take part in the capillary formation was examined microscopically and by the aid of a morphometrical program, and the thus-obtained data were expressed in percent of the untreated control.
# Namely, it has been stated that, relating to borrelidin, the cell-proliferation-inhibiting effect of the novel derivatives of general formula (I) definitely decreases whereas the capillary-formation-inhibiting effect changes only in a small degree or not at all. The relative degree of selectivity was determined for each compound by […] the ratios of the active agent concentrations that inhibit the cell proliferation in 50% and which inhibit the capillary formation.
# [2] = test system: mouse colon adenocarcinoma cells transplanted into the spleen; test: Colon 38 spleen-liver metastasis model; assay type: in vivo; conditions: subtoxic administration
# Source text: 2. In a colon 38 spleen-liver model [Dong, Z. et al., J. Natl. Cancer Inst.
# [3] = test system: Lewis lung adenocarcinoma; test: Lewis lung adenocarcinoma metastasis model; assay type: in vivo; conditions: for inhibition of the increase of micrometastases: one fifth of the toxic dose
# [4] = test system: PC-3 of human prostate cancer; conditions: cited from earlier work
# [5] = test system: cells forming capillary tubules; conditions: cited from earlier work
# [6] = test system: cell lines WiDr of human colon cancer; conditions: cited from earlier work
# [7] = in vivo; cited from earlier work
smiles,measurement,setting,value
"C[C@@H]1C[C@H](C)C[C@H](C)[C@@H](O)CC(=O)O[C@H]([C@@H]2CCC[C@H]2C(=O)OCCN2CCOCC2)C/C=C/C=C(/C#N)[C@H](O)[C@@H](C)C1 [Example 1, Borrelidin-2-morpholinoethyl ester]","selectivity index: inhibits the capillary formation better than the cell proliferation, in relation to the borrelidin",[1],60 times
"CC1CC(C)CC(C)C(O)C(C#N)=CC=CCC(C2CCCC2C(=O)OCCc2ccccn2)OC(=O)CC(O)C(C)C1 (stereo not drawn) [Example 2, Borrelidin-2-(2-pyridyl)-ethyl ester]","selectivity index: inhibits the capillary formation better than the cell proliferation, in relation to the borrelidin",[1],7.5 times
"CC1CC(C)CC(C)C(O)C(C#N)=CC=CCC(C2CCCC2C(=O)NCCN2CCOCC2)OC(=O)CC(O)C(C)C1 (stereo not drawn) [Example 4, Borrelidin 2-morpholinoethyl amide]","selectivity index: inhibits the capillary formation better than the cell proliferation, in relation to the borrelidin",[1],6 times
"CC1CC(C)CC(C)C(O)CC(=O)OC(C2CCCC2C(=O)NCc2cccnc2)C(C#N)=CC=CCC(O)C(C)C1 (stereo not drawn) [Example 15, Borrelidin-3-picolylamide]",metastasis-forming ability of mouse colon adenocarcinoma cells transplanted into the spleen,[2],considerably decreased
same,inhibition of the increase of micrometastases,[3]; intraperitoneal administration,inhibited very considerably
same,inhibition of the increase of micrometastases,[3]; per os administration,inhibited very considerably
"C[C@@H]1C[C@H](C)C[C@H](C)[C@@H](O)CC(=O)O[C@H]([C@@H]2CCC[C@H]2C(=O)O)C/C=C/C=C(/C#N)[C@H](O)[C@@H](C)C1 [borrelidin, 2′-(7-cyano-8,16-dihydroxy-9,11,13,15-tetramethyl-18-oxo-oxacyclooctadeca-4,6-dien-2-yl)-cyclopentane-1′-carboxylic acid]",effectiveness against cell line,[4],effective
same,angiogenesis-inhibiting effect,[5],induces the apoptosis of the cells forming capillary tubules
same,"difference in sensitivity of proliferation and capillary formation by the endothelial cells, in favour of capillary formation",[1]; endothelial cells,about a five fold difference
same,effectiveness against cell line,[6],effective
same,inhibition of the propagation of metastatic nodules formed after removing the primary tumour in lung,[3]; Lewis lung adenocarcinoma model,inhibited in a very small degree
same,LD50 value,[7],medium
